Reference: patent US20220305019A1, “PARAXANTHINE-BASED COMPOSITIONS FOR PROMOTING WEIGHT LOSS” (Ingenious Ingredients, LP, priority 2021, published 2022)

Experiment: Resting energy expenditure after oral ingestion of PX, crossover, two participants
Assay type: in vivo, human
Protocol: Upon determination of baseline resting energy expenditure, two participants were assigned in a randomized, double-blind, placebo-controlled, crossover fashion to ingest a non-energetic placebo (maltodextrin), 100 mg paraxanthine (PX), 200 mg PX or 300 mg PX. All supplements were orally ingested with 8 fluid ounces of cold tap water. The order of administration for all interventions was randomized using a random allocation software to ensure randomization and to avoid order effects. After ingestion, participants completed all assessments in an identical fashion 30, 60, 90, 120, and 180 minutes after ingestion of their assigned supplement. All study visits took place between 0600-1000 hours. At least 72 hours of rest took place between each condition.

Cn1c(=O)[nH]c2ncn(C)c2c1=O [PX, paraxanthine]
Resting Energy Expenditure (100 mg PX, 30 min, person one): 1,943 kcal/day | Resting Energy Expenditure (100 mg PX, 30 min, person two): 1,690 kcal/day | Resting Energy Expenditure (100 mg PX, 60 min, person one): 1,862 kcal/day | Resting Energy Expenditure (100 mg PX, 60 min, person two): 1,809 kcal/day | Resting Energy Expenditure (100 mg PX, 90 min, person one): 1,921 kcal/day | Resting Energy Expenditure (100 mg PX, 90 min, person two): 1,899 kcal/day | Resting Energy Expenditure (100 mg PX, 120 min, person one): 1,990 kcal/day | Resting Energy Expenditure (100 mg PX, 120 min, person two): 1,787 kcal/day | Resting Energy Expenditure (100 mg PX, 180 min, person one): 2,129 kcal/day | Resting Energy Expenditure (100 mg PX, 180 min, person two): 1,796 kcal/day | Resting Energy Expenditure MEAN (100 mg PX, Average of both): 1,883 kcal/day | Resting Energy Expenditure MEAN (100 mg PX, person one): 1,969 kcal/day | Resting Energy Expenditure MEAN (100 mg PX, person two): 1,796 kcal/day | Resting Energy Expenditure (200 mg PX, 30 min, person one): 2,007 kcal/day | Resting Energy Expenditure (200 mg PX, 30 min, person two): 1,703 kcal/day | Resting Energy Expenditure (200 mg PX, 60 min, person one): 1,702 kcal/day | Resting Energy Expenditure (200 mg PX, 60 min, person two): 1,782 kcal/day | Resting Energy Expenditure (200 mg PX, 90 min, person one): 2,048 kcal/day | Resting Energy Expenditure (200 mg PX, 90 min, person two): 1,864 kcal/day | Resting Energy Expenditure (200 mg PX, 120 min, person one): 2,221 kcal/day | Resting Energy Expenditure (200 mg PX, 120 min, person two): 1,872 kcal/day | Resting Energy Expenditure (200 mg PX, 180 min, person one): 2,067 kcal/day | Resting Energy Expenditure (200 mg PX, 180 min, person two): 1,853 kcal/day | Resting Energy Expenditure MEAN (200 mg PX, Average of both): 1,912 kcal/day | Resting Energy Expenditure MEAN (200 mg PX, person one): 2,009 kcal/day | Resting Energy Expenditure MEAN (200 mg PX, person two): 1,815 kcal/day | Resting Energy Expenditure (300 mg PX, 30 min, person one): 2,267 kcal/day | Resting Energy Expenditure (300 mg PX, 30 min, person two): 1,840 kcal/day | Resting Energy Expenditure (300 mg PX, 60 min, person one): 2,354 kcal/day | Resting Energy Expenditure (300 mg PX, 60 min, person two): 1,749 kcal/day | Resting Energy Expenditure (300 mg PX, 90 min, person one): 2,312 kcal/day | Resting Energy Expenditure (300 mg PX, 90 min, person two): 1,769 kcal/day | Resting Energy Expenditure (300 mg PX, 120 min, person one): 2,436 kcal/day | Resting Energy Expenditure (300 mg PX, 120 min, person two): 1,831 kcal/day | Resting Energy Expenditure (300 mg PX, 180 min, person one): 2,402 kcal/day | Resting Energy Expenditure (300 mg PX, 180 min, person two): 1,913 kcal/day | Resting Energy Expenditure MEAN (300 mg PX, Average of both): 2,098 kcal/day | Resting Energy Expenditure MEAN (300 mg PX, person one): 2,374 kcal/day | Resting Energy Expenditure MEAN (300 mg PX, person two): 1,822 kcal/day
